Assay results from ChEMBL document CHEMBL4507298 (2021).

Columns and labels:
Settings in all cases: Compound concentration 10.0 uM
[1] = target: T1, Alpha-2B adrenergic receptor (Homo sapiens) (UniProt P18089)
T1 sequence (whole entry): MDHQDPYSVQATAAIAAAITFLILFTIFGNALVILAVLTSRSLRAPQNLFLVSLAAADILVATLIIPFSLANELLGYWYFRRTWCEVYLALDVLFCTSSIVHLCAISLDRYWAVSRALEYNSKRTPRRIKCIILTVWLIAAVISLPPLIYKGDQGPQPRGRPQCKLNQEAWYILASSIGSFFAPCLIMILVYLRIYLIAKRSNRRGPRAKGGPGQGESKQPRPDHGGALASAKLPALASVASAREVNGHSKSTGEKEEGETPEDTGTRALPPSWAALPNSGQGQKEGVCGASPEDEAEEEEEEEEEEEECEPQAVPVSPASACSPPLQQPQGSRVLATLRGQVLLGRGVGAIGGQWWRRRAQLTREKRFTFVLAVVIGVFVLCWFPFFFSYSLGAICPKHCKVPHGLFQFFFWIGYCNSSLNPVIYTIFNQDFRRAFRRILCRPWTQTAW

[2] = target: T2, D(4) dopamine receptor (Homo sapiens) (UniProt P21917)
T2 sequence (whole entry): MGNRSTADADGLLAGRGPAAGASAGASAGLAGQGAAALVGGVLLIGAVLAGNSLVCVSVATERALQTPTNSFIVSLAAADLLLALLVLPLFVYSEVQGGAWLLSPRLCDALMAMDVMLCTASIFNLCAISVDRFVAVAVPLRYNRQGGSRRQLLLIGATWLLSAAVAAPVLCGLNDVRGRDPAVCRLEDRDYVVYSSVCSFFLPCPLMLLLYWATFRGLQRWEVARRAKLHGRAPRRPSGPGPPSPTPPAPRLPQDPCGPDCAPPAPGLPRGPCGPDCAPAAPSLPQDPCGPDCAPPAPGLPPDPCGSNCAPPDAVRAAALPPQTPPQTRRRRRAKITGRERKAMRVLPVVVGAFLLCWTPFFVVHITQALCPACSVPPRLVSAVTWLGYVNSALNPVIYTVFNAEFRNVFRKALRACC

[3] = target: T3, Alpha-2C adrenergic receptor (Homo sapiens) (UniProt P18825)
T3 sequence (whole entry): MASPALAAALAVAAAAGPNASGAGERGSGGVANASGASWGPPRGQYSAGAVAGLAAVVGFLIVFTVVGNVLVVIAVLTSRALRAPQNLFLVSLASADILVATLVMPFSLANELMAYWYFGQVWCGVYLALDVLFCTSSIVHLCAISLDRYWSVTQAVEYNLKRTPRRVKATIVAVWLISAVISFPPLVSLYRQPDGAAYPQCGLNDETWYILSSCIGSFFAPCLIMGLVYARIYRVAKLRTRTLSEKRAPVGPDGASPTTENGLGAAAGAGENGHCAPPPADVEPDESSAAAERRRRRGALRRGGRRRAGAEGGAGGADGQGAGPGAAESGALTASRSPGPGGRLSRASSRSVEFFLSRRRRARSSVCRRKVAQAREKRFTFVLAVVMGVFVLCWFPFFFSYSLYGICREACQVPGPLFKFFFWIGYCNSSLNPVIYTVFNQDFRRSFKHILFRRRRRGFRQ

[4] = target: GABA-A receptor; anion channel (Rattus norvegicus) (UniProt O09028+P15431+P18506+P18508+P19969+P20236+P23574+P23576+P28471+P28473+P30191+P62813+P63079+P63138+Q91ZM7+Q9ES14)
[5] = target: T4, Muscarinic acetylcholine receptor M5 (Homo sapiens) (UniProt P08912)
T4 sequence (whole entry): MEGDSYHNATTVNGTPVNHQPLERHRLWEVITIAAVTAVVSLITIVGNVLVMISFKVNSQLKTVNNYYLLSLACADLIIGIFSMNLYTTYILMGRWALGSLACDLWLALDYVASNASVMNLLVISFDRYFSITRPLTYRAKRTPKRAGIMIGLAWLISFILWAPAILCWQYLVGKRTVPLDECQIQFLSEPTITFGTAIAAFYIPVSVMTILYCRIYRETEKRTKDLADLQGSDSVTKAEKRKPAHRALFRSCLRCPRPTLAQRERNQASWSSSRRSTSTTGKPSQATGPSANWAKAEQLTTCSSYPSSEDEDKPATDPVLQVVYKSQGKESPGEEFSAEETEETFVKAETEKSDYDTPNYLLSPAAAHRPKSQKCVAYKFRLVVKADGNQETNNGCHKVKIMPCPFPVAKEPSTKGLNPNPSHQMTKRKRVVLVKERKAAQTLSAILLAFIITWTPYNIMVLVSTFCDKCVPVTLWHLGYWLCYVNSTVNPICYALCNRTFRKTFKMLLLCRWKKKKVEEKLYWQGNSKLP

[6] = target: Muscarinic acetylcholine receptor M3 (Homo sapiens) (UniProt P20309)
[7] = target: D(1B) dopamine receptor (Homo sapiens) (UniProt P21918)
[8] = target: Sodium-dependent serotonin transporter (Homo sapiens) (UniProt P31645)
[9] = target: Delta-type opioid receptor (Homo sapiens) (UniProt P41143)
[10] = target: 5-hydroxytryptamine receptor 2B (Homo sapiens) (UniProt P41595)
[11] = target: 5-hydroxytryptamine receptor 2A (Homo sapiens) (UniProt P28223)
[12] = target: T5, 5-hydroxytryptamine receptor 2C (Homo sapiens) (UniProt P28335)
T5 sequence (whole entry): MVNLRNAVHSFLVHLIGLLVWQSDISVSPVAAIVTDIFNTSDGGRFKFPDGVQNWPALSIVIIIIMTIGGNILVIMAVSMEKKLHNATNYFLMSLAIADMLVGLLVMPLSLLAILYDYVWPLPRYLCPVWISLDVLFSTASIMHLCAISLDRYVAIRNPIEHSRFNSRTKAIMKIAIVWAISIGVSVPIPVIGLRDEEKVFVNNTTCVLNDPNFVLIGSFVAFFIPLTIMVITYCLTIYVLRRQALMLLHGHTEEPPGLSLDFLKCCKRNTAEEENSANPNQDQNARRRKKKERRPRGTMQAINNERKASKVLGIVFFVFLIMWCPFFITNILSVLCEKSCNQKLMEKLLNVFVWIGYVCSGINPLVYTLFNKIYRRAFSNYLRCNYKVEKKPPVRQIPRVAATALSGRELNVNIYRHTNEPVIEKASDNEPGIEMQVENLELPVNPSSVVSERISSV

[13] = target: Alpha-1D adrenergic receptor (Homo sapiens) (UniProt P25100)

Measured: inhibition

Chain of Muscarinic acetylcholine receptor M3 (Homo sapiens) (P20309 whole entry, looked up): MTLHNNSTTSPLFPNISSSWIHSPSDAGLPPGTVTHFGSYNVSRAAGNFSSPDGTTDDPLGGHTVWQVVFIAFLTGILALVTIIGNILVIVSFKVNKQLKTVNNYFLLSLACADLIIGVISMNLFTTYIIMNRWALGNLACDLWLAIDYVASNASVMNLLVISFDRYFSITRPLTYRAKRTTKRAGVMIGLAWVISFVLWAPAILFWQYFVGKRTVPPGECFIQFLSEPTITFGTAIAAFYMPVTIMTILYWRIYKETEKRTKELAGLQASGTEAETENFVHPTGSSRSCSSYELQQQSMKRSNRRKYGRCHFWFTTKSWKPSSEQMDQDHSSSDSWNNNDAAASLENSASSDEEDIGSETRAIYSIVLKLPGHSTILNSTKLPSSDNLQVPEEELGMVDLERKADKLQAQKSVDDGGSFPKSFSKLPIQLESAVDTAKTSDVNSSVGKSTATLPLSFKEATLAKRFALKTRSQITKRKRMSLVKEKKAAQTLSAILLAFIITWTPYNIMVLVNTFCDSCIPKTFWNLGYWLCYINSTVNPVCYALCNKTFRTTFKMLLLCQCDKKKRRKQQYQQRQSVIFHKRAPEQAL
Chain of 5-hydroxytryptamine receptor 2B (Homo sapiens) (P41595 whole entry): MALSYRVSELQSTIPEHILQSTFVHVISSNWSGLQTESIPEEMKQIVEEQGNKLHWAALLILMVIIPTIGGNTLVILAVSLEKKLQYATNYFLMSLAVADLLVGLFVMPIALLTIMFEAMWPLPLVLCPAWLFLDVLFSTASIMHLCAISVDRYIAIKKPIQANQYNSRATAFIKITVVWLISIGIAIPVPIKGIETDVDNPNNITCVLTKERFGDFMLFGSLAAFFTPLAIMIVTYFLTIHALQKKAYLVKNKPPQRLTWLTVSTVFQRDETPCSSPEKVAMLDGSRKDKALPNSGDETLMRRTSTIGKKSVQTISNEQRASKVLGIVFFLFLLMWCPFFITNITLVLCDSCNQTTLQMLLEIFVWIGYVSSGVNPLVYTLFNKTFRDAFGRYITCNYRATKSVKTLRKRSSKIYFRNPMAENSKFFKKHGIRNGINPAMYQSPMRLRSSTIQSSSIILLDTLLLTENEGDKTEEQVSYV
Chain of D(1B) dopamine receptor (Homo sapiens) (P21918 whole entry): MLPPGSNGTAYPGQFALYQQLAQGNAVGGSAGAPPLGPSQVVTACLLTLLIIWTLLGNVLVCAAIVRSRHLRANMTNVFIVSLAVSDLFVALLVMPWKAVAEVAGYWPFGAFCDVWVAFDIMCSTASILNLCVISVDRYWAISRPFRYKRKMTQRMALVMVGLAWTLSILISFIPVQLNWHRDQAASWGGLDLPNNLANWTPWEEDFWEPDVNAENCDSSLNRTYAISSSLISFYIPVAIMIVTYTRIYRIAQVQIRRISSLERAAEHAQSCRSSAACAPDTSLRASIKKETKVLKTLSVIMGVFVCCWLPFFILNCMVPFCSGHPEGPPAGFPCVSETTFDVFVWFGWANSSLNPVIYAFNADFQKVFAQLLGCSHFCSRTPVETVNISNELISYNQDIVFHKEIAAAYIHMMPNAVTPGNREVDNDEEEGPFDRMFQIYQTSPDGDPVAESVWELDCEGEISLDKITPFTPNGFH
Chain of Delta-type opioid receptor (Homo sapiens) (P41143 whole entry): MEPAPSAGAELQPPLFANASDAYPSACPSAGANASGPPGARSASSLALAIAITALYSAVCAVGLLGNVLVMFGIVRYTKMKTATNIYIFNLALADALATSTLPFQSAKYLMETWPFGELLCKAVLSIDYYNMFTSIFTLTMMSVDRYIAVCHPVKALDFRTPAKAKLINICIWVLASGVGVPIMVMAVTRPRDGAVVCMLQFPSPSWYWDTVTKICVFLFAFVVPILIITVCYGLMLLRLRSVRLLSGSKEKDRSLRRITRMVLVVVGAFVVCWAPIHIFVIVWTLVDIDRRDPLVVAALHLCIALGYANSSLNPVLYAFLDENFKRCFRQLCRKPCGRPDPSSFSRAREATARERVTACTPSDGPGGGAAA
Chain of Sodium-dependent serotonin transporter (Homo sapiens) (P31645 whole entry, looked up): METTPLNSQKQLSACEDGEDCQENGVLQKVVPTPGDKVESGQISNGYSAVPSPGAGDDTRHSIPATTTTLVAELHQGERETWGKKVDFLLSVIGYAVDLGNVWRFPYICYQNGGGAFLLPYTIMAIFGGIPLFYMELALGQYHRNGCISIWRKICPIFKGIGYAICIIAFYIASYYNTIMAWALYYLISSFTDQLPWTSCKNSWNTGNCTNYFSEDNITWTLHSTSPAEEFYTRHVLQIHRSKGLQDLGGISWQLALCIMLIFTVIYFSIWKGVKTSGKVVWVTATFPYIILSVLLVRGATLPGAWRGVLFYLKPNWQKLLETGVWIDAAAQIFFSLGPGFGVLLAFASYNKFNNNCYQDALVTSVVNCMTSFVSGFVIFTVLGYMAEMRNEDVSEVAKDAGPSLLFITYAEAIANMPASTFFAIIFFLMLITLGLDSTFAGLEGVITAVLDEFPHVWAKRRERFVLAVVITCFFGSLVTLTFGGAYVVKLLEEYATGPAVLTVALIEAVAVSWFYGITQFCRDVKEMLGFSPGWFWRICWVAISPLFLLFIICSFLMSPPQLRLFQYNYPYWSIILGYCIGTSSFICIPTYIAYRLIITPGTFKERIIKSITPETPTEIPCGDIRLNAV
Chain of 5-hydroxytryptamine receptor 2A (Homo sapiens) (P28223 whole entry): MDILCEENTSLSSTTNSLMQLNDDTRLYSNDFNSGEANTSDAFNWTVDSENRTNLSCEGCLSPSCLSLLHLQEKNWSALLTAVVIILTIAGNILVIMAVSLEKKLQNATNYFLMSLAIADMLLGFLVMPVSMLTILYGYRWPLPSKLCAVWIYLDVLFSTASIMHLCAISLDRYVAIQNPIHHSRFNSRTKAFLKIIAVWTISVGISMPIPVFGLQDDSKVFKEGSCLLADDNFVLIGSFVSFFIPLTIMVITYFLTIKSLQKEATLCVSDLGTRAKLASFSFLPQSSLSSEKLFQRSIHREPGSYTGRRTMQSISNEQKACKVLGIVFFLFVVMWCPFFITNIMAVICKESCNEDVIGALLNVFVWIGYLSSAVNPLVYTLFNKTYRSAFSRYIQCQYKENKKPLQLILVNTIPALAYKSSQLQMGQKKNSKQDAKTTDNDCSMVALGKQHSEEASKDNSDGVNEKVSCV
Chain of Alpha-1D adrenergic receptor (Homo sapiens) (P25100 whole entry): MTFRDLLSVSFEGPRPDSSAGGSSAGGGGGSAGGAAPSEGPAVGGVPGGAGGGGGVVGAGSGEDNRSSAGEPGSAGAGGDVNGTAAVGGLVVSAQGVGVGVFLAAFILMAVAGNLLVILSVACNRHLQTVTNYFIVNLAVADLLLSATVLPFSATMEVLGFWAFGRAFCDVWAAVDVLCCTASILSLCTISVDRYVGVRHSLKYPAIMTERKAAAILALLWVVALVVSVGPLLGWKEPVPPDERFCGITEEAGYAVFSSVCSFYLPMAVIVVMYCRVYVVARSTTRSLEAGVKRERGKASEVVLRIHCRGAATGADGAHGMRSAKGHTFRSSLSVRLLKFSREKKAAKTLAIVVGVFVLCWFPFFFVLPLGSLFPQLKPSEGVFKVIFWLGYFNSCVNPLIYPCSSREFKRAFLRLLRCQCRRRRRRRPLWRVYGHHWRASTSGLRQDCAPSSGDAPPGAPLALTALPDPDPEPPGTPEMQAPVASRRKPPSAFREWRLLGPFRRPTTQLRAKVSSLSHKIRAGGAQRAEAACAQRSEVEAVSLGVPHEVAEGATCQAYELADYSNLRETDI

COc1ccc2cc(OCC3(C(=O)O)CN(C(=O)c4ccc(F)cc4)C3)ccc2c1 [PF-04418948]
inactive: [1] 9.24% | [2] 8.76% | [3] 9.72% | [4] -1.97% | [5] -7.44% | [6] 19.2% | [7] -2.51% | [8] -6.83% | [9] 5.07% | [10] -0.11% | [11] 6.25% | [12] 12.3% | [13] -3.76%

O=C(c1ccc(F)cc1)N1CC(COc2ccc(Br)cc2)(C(=O)O)C1 [PF-04475866]
inactive: [1] 12.1% | [2] -7.87% | [3] 11.3% | [4] -8.88% | [5] -0.33% | [6] 27.9% | [7] 2.2% | [8] -6.29% | [9] -5.22% | [10] -2.5% | [11] -2.23% | [12] 30.2% | [13] 5%
